Data: PubChem BioAssay (NCI)
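Assay format: 96-well plates, 48-hour exposure. Here, GI50 denotes the concentration required for 50% inhibition of growth. TGI denotes the concentration required for complete inhibition of growth.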

Experiments:
Test in all cases: inhibition of tumour cell growth, NCI panel, 48 h
CCRF-CEM leukemia = test system: CCRF-CEM leukemia
MDA-MB-435 = test system: MDA-MB-435
BT-549 breast = test system: BT-549 breast
HT29 colon = test system: HT29 colon
OVCAR-5 ovarian = test system: OVCAR-5 ovarian
NCI-H226 lung = test system: NCI-H226 lung
HOP-62 NSCLC = test system: HOP-62 NSCLC
U251 CNS = test system: U251 CNS
UACC-62 melanoma = test system: UACC-62 melanoma
SK-MEL-2 melanoma = test system: SK-MEL-2 melanoma
K-562 leukemia = test system: K-562 leukemia
HCT-15 colon = test system: HCT-15 colon
MDA-MB-231 breast = test system: MDA-MB-231 breast
A498 renal = test system: A498 renal
MOLT-4 leukemia = test system: MOLT-4 leukemia
LOX IMVI melanoma = test system: LOX IMVI melanoma
NCI-H23 lung = test system: NCI-H23 lung
EKVX NSCLC = test system: EKVX NSCLC
ACHN renal = test system: ACHN renal
KM12 colon = test system: KM12 colon
HS 578T breast = test system: HS 578T breast
SK-MEL-5 melanoma = test system: SK-MEL-5 melanoma
OVCAR-4 ovarian = test system: OVCAR-4 ovarian
HOP-92 NSCLC = test system: HOP-92 NSCLC
NCI/ADR-RES ovarian = test system: NCI/ADR-RES ovarian
A549 NSCLC = test system: A549 NSCLC
SN12C renal = test system: SN12C renal
SF-295 CNS = test system: SF-295 CNS
T-47D breast = test system: T-47D breast
DU-145 prostate = test system: DU-145 prostate
SK-MEL-28 melanoma = test system: SK-MEL-28 melanoma
MALME-3M melanoma = test system: MALME-3M melanoma
HL-60(TB) leukemia = test system: HL-60(TB) leukemia
786-0 renal = test system: 786-0 renal
SR leukemia = test system: SR leukemia
NCI-H522 lung = test system: NCI-H522 lung
SNB-75 CNS = test system: SNB-75 CNS
UO-31 renal = test system: UO-31 renal
TK-10 renal = test system: TK-10 renal
RPMI-8226 leukemia = test system: RPMI-8226 leukemia
SW-620 colon = test system: SW-620 colon
RXF 393 renal = test system: RXF 393 renal
OVCAR-8 ovarian = test system: OVCAR-8 ovarian
HCC-2998 colon = test system: HCC-2998 colon
OVCAR-3 ovarian = test system: OVCAR-3 ovarian
PC-3 prostate = test system: PC-3 prostate
SF-268 CNS = test system: SF-268 CNS
M14 melanoma = test system: M14 melanoma
CAKI-1 renal = test system: CAKI-1 renal
NCI-H460 lung = test system: NCI-H460 lung
SF-539 CNS = test system: SF-539 CNS
IGROV1 ovarian = test system: IGROV1 ovarian
MCF7 breast = test system: MCF7 breast
UACC-257 melanoma = test system: UACC-257 melanoma
HCT-116 colon = test system: HCT-116 colon
COLO 205 colon = test system: COLO 205 colon
SK-OV-3 ovarian = test system: SK-OV-3 ovarian
SNB-19 CNS = test system: SNB-19 CNS

## CNC(=O)c1cncc(/C=C/c2ccccc2Cl)c1
CCRF-CEM leukemia
  GI50: > 25 µM
  TGI: > 25 µM
MDA-MB-435
  GI50: > 25 µM
  TGI: > 25 µM
BT-549 breast
  GI50: > 25 µM
  TGI: > 25 µM
HT29 colon
  GI50: > 25 µM
  TGI: > 25 µM
OVCAR-5 ovarian
  GI50: > 25 µM
  TGI: > 25 µM
NCI-H226 lung
  GI50: > 25 µM
  TGI: > 25 µM
HOP-62 NSCLC
  GI50: > 25 µM
  TGI: > 25 µM
U251 CNS
  GI50: > 25 µM
  TGI: > 25 µM
UACC-62 melanoma
  GI50: > 25 µM
  TGI: > 25 µM
SK-MEL-2 melanoma
  GI50: > 25 µM
  TGI: > 25 µM
K-562 leukemia
  GI50: > 25 µM
  TGI: > 25 µM
HCT-15 colon
  GI50: > 25 µM
  TGI: > 25 µM
MDA-MB-231 breast
  GI50: > 25 µM
  TGI: > 25 µM
A498 renal
  GI50: > 25 µM
  TGI: > 25 µM
MOLT-4 leukemia
  GI50: > 25 µM
  TGI: > 25 µM
LOX IMVI melanoma
  GI50: > 25 µM
  TGI: > 25 µM
NCI-H23 lung
  GI50: > 25 µM
  TGI: > 25 µM
EKVX NSCLC
  GI50: > 25 µM
  TGI: > 25 µM
ACHN renal
  GI50: > 25 µM
  TGI: > 25 µM
KM12 colon
  GI50: > 25 µM
  TGI: > 25 µM
HS 578T breast
  GI50: 24.5 µM
  TGI: > 25 µM
SK-MEL-5 melanoma
  GI50: > 25 µM
  TGI: > 25 µM
OVCAR-4 ovarian
  GI50: > 25 µM
  TGI: > 25 µM
HOP-92 NSCLC
  GI50: 12.6 µM
  TGI: > 25 µM
NCI/ADR-RES ovarian
  GI50: > 25 µM
  TGI: > 25 µM
A549 NSCLC
  GI50: > 25 µM
  TGI: > 25 µM
SN12C renal
  GI50: > 25 µM
  TGI: > 25 µM
SF-295 CNS
  GI50: > 25 µM
  TGI: > 25 µM
T-47D breast
  GI50: > 23.6 µM
  TGI: > 25 µM
DU-145 prostate
  GI50: > 25 µM
  TGI: > 25 µM
SK-MEL-28 melanoma
  GI50: > 25 µM
  TGI: > 25 µM
MALME-3M melanoma
  GI50: > 25 µM
  TGI: > 25 µM
HL-60(TB) leukemia
  GI50: > 25 µM
  TGI: > 25 µM
786-0 renal
  GI50: > 25 µM
  TGI: > 25 µM
SR leukemia
  GI50: > 22.9 µM
  TGI: > 25 µM
NCI-H522 lung
  GI50: > 25 µM
  TGI: > 25 µM
SNB-75 CNS
  GI50: > 19.7 µM
  TGI: > 25 µM
UO-31 renal
  GI50: > 23.6 µM
  TGI: > 25 µM
TK-10 renal
  GI50: > 25 µM
  TGI: > 25 µM
RPMI-8226 leukemia
  GI50: > 25 µM
  TGI: > 25 µM
SW-620 colon
  GI50: > 25 µM
  TGI: > 25 µM
RXF 393 renal
  GI50: > 25 µM
  TGI: > 25 µM
OVCAR-8 ovarian
  GI50: > 25 µM
  TGI: > 25 µM
HCC-2998 colon
  GI50: > 25 µM
  TGI: > 25 µM
OVCAR-3 ovarian
  GI50: > 25 µM
  TGI: > 25 µM
PC-3 prostate
  GI50: > 25 µM
  TGI: > 25 µM
SF-268 CNS
  GI50: > 25 µM
  TGI: > 25 µM
M14 melanoma
  GI50: > 25 µM
  TGI: > 25 µM
CAKI-1 renal
  GI50: > 25 µM
  TGI: > 25 µM
NCI-H460 lung
  GI50: > 25 µM
  TGI: > 25 µM
SF-539 CNS
  GI50: > 25 µM
  TGI: > 25 µM
IGROV1 ovarian
  GI50: > 25 µM
  TGI: > 25 µM
MCF7 breast
  GI50: > 25 µM
  TGI: > 25 µM
UACC-257 melanoma
  GI50: > 25 µM
  TGI: > 25 µM
HCT-116 colon
  GI50: > 25 µM
  TGI: > 25 µM
COLO 205 colon
  GI50: > 25 µM
  TGI: > 25 µM
SK-OV-3 ovarian
  GI50: > 25 µM
  TGI: > 25 µM
SNB-19 CNS
  GI50: > 25 µM
  TGI: > 25 µM
